Tests used:
Assay in all cases: KINOMEscan
Assay type in all cases: binding
Details in all cases: 2000 nM
CDK9 = target: T1, CDK9 (Homo sapiens, UniProt P50750)
T1 construct: purchased DiscoverX (KINOMEscan service)

ACVR1B = target: T2, ACVR1B (Homo sapiens, UniProt P36896)
T2 construct: purchased DiscoveRx (KINOMEscan scanMAX panel, service)

GRK3 = target: T3, GRK3 (Homo sapiens, UniProt P35626)
T3 construct: DNA label (for qPCR read-out); purchased DiscoveRx (KINOMEscan scanMAX panel, contract assay)

MYO3B = target: T4, MYO3B (Homo sapiens, UniProt Q8WXR4)
T4 construct: DNA label (for qPCR read-out); purchased KINOMEscan scanMAX panel (DiscoveRx)

MAP4K4 = MAP4K4 (Homo sapiens, UniProt O95819)
TRPM6 = target: T5, TRPM6 (Homo sapiens, UniProt Q9BX84)
T5 construct: DNA label (for qPCR read-out); purchased DiscoveRx (KINOMEscan scanMAX panel)

PCTK1 = target: T6, PCTK1 (Homo sapiens, UniProt Q00536)
T6 construct: purchased DiscoverX (KINOMEscan service)
T6 sequence (Q00536 whole entry): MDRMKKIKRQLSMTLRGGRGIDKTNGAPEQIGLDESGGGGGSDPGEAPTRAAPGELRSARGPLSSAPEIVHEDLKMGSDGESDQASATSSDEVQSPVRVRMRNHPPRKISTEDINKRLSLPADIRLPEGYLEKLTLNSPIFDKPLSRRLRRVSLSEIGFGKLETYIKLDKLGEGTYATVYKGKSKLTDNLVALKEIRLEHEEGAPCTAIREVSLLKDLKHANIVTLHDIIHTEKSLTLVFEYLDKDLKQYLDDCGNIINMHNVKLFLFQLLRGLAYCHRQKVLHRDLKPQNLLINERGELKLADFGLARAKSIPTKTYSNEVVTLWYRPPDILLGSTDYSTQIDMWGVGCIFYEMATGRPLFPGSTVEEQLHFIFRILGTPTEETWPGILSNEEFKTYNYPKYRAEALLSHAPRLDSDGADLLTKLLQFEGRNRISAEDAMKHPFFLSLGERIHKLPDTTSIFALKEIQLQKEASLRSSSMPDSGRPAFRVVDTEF

MAP4K5 = MAP4K5 (Homo sapiens, UniProt Q9Y4K4)
[1] = target: ABL1(M351T)-phosphorylated (Homo sapiens, UniProt P00519, M351T)
KIT (D816H) = target: T7, KIT (D816H) (Homo sapiens, UniProt P10721, D816H)
T7 construct: DNA label (for qPCR read-out); purchased DiscoveRx (KINOMEscan scanMAX panel)
T7 sequence (P10721 26-976 D816H): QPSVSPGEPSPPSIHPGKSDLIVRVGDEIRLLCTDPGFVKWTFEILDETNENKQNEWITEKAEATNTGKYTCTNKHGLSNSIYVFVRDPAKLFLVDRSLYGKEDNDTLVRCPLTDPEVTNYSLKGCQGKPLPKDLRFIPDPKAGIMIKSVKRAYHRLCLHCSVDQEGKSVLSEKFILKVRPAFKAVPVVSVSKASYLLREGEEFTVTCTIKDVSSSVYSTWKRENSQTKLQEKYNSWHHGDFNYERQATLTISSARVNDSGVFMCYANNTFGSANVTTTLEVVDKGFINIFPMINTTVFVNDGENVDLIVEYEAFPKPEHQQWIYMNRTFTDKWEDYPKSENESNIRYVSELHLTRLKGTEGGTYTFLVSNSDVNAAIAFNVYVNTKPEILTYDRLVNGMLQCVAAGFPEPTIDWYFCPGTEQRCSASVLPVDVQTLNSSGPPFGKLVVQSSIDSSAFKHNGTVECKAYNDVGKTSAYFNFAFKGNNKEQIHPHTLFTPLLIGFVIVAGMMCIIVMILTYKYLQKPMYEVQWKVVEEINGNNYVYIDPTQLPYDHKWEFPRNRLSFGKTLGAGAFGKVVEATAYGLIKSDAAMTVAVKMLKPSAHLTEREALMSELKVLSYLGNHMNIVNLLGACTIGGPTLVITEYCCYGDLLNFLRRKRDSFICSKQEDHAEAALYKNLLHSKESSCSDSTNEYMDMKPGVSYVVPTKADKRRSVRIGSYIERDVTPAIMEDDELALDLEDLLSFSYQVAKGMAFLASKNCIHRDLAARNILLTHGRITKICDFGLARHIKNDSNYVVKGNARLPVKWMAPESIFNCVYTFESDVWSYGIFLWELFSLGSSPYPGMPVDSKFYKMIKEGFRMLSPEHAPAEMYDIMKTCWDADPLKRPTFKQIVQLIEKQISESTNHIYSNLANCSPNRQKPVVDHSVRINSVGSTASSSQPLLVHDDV

PIKFYVE = target: T8, PIKFYVE (Homo sapiens, UniProt Q9Y2I7)
T8 construct: DNA label; purchased DiscoveRx (KINOMEscan scanMAX panel)

DMPK = target: T9, DMPK (Homo sapiens, UniProt Q09013)
T9 construct: DNA label (qPCR read-out); purchased KINOMEscan (DiscoveRx) panel

[2] = target: T10, RPS6KA4(Kin.Dom.1-N-terminal) (Homo sapiens, UniProt O75676)
T10 construct: Kin.Dom.1; DNA label (qPCR read-out); purchased DiscoveRx (KINOMEscan ScanMAX panel)

PAK4 = target: T11, PAK4 (Homo sapiens, UniProt O96013)
T11 construct: purchased DiscoverX (KINOMEscan service)

ULK1 = target: T12, ULK1 (Homo sapiens, UniProt O75385)
T12 construct: DNA label (for qPCR read-out); purchased DiscoveRx (KINOMEscan scanMAX panel)

EPHB3 = target: T13, EPHB3 (Homo sapiens, UniProt P54753)
T13 construct: purchased DiscoveRx (KINOMEscan scanMAX panel)

KIT(V559D, T670I) = target: T14, KIT(V559D, T670I) (Homo sapiens, UniProt P10721, T670I/V559D)
T14 construct: purchased KINOMEscan (DiscoveRx) panel service
T14 sequence (P10721 26-976 V559D/T670I): as the sequence (P10721 26-976 D816H) above, with V534D, T645I, H791D counted along it

[3] = target: T15, RSK1(Kin.Dom.1-N-terminal) (Homo sapiens, UniProt Q15418)
T15 construct: RSK1(Kin.Dom.1); purchased DiscoveRx (KINOMEscan scanMAX panel)

CDKL3 = target: T16, CDKL3 (Homo sapiens, UniProt Q8IVW4)
T16 construct: DNA label (for qPCR read-out); purchased DiscoveRx (KINOMEscan scanMAX service)

MAPKAPK5 = MAPKAPK5 (Homo sapiens, UniProt Q8IW41)
Sequence of MAPKAPK5 (Q8IW41 whole entry): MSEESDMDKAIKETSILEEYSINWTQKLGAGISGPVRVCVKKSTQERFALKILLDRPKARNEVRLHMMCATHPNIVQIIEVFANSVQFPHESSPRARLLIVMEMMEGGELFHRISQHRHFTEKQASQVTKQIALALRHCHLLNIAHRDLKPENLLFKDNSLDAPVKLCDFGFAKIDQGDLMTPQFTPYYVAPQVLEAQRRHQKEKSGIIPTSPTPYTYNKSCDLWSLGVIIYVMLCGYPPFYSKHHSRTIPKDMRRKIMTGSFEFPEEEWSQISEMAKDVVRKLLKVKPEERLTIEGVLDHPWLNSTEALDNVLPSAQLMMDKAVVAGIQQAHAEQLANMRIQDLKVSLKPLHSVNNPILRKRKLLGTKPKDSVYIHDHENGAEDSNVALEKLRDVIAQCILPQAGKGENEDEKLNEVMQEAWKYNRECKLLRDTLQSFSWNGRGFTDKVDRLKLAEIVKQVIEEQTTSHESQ

DYRK2 = target: T17, DYRK2 (Homo sapiens, UniProt Q92630)
T17 construct: DNA label (qPCR read-out); purchased KINOMEscan (DiscoveRx) panel
T17 sequence (Q92630 whole entry): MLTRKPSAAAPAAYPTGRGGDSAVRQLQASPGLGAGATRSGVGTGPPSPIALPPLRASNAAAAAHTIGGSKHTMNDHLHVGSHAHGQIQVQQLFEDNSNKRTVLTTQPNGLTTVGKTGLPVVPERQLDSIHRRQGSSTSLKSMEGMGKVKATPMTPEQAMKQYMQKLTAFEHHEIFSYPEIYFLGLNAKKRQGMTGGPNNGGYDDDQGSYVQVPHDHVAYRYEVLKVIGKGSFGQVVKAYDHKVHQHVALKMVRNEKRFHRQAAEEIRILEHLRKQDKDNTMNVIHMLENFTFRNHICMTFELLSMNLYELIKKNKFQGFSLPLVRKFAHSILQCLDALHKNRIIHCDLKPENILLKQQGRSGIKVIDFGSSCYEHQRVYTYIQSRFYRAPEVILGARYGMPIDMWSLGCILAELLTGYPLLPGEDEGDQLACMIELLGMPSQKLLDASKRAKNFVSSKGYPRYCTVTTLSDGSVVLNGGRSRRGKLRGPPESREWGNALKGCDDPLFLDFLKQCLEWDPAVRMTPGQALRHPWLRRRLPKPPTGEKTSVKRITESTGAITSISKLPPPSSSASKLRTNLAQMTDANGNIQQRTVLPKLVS

PHKG1 = target: T18, PHKG1 (Homo sapiens, UniProt Q16816)
T18 construct: DNA label (for qPCR read-out); purchased DiscoveRx (KINOMEscan scanMAX service)

DCAMKL3 = target: T19, DCAMKL3 (Homo sapiens, UniProt Q9C098)
T19 construct: DNA label (qPCR read-out); purchased KINOMEscan (DiscoveRx) panel

ZAK = ZAK (Homo sapiens, UniProt Q9NYL2)
TAOK3 = target: T20, TAOK3 (Homo sapiens, UniProt Q9H2K8)
T20 construct: DNA label (for qPCR read-out); purchased DiscoveRx (KINOMEscan scanMAX panel, contract assay)

MLK2 = target: T21, MLK2 (Homo sapiens, UniProt Q02779)
T21 construct: DNA label (qPCR read-out); purchased KINOMEscan scanMAX panel (DiscoveRx)
T21 sequence (Q02779 whole entry): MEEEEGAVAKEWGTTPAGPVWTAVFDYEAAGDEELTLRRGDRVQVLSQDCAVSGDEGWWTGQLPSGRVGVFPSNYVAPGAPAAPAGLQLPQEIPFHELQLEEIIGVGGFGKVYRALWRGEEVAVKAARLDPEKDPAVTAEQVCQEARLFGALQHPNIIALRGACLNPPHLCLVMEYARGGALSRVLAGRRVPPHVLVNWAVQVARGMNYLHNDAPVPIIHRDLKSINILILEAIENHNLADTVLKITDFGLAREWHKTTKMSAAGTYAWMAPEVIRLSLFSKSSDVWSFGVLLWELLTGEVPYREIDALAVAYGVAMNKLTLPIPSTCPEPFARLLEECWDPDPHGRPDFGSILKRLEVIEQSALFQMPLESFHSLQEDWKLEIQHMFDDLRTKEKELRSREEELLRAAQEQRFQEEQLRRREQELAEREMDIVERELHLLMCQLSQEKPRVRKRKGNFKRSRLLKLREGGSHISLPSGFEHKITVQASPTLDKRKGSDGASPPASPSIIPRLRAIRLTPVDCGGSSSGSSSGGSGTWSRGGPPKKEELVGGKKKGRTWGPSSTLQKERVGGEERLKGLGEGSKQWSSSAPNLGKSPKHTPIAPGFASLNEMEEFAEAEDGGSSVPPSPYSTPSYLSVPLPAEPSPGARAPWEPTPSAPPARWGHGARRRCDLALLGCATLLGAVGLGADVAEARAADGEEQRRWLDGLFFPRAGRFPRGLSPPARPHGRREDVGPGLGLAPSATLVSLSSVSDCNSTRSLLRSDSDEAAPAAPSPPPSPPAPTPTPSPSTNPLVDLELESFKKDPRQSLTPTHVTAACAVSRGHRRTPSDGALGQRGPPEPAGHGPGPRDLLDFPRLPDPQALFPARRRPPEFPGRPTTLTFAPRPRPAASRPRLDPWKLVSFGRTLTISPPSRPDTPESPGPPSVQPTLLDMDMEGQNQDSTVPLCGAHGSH

BRAF = target: T22, BRAF (Homo sapiens, UniProt P15056)
T22 construct: DNA label (for qPCR read-out); purchased KINOMEscan scanMAX panel (DiscoveRx)

[4] = target: T23, RSK4(Kin.Dom.2-C-terminal) (Homo sapiens, UniProt Q9UK32)
T23 construct: RSK4(Kin.Dom.2); purchased DiscoveRx (KINOMEscan scanMAX panel)

PKN2 = target: T24, PKN2 (Homo sapiens, UniProt Q16513)
T24 construct: DNA label (qPCR read-out); purchased KINOMEscan (DiscoveRx) panel

BMPR1A = target: T25, BMPR1A (Homo sapiens, UniProt P36894)
T25 construct: DNA label (for qPCR read-out); purchased KINOMEscan scanMAX panel (DiscoveRx)

LRRK2(G2019S) = target: T26, LRRK2(G2019S) (Homo sapiens, UniProt Q5S007, G2019S)
T26 construct: purchased KINOMEscan (DiscoveRx) panel service

CSNK1E = target: T27, CSNK1E (Homo sapiens, UniProt P49674)
T27 construct: DNA label (qPCR read-out); purchased DiscoverX (assay service)
T27 sequence (P49674 whole entry): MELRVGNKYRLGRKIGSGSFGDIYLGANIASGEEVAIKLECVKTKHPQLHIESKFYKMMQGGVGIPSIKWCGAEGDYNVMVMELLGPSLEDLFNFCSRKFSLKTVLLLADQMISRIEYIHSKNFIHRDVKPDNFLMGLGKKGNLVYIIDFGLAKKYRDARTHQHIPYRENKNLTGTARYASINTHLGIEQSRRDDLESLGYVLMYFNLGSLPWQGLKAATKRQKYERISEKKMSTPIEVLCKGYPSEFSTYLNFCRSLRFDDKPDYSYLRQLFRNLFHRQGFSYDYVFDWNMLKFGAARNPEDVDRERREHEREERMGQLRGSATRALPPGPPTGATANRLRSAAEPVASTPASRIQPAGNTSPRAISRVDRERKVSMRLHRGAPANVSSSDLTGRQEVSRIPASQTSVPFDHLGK

CSNK2A2 = target: T28, CSNK2A2 (Homo sapiens, UniProt P19784)
T28 construct: DNA label; purchased DiscoveRx (KINOMEscan scanMAX panel)

MAP4K2 = MAP4K2 (Homo sapiens, UniProt Q12851)
MARK3 = MARK3 (Homo sapiens, UniProt P27448)

T1 sequence (P50750 whole entry): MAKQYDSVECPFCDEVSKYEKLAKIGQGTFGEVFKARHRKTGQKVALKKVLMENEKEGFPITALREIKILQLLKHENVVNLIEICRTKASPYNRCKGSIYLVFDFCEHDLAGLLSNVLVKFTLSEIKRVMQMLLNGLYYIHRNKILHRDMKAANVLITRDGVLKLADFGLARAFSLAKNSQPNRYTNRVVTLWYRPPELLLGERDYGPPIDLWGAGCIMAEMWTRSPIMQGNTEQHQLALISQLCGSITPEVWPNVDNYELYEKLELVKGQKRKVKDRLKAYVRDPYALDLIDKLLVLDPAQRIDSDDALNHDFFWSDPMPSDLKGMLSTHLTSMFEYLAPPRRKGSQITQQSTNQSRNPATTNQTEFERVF
T2 sequence (P36896 24-505): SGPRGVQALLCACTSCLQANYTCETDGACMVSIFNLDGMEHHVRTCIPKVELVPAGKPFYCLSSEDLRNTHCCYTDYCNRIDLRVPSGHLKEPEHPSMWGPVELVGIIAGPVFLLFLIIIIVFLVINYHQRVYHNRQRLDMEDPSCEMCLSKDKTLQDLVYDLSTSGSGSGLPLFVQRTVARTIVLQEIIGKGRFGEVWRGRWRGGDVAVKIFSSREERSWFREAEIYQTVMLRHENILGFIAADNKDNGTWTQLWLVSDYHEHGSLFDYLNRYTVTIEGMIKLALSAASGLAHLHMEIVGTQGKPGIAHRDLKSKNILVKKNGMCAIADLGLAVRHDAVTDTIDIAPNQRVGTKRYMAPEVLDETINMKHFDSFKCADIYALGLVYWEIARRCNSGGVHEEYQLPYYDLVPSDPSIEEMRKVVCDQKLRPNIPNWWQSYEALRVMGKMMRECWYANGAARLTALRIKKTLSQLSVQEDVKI

Row | Structure (SMILES) | % Ctrl (CDK9) [% Ctrl] | % Ctrl (ACVR1B) [% Ctrl] | % Ctrl (GRK3) [% Ctrl] | % Ctrl (MYO3B) [% Ctrl] | % Ctrl (MAP4K4) [% Ctrl] | % Ctrl (TRPM6) [% Ctrl] | % Ctrl (PCTK1) [% Ctrl] | % Ctrl (MAP4K5) [% Ctrl] | % Ctrl [1] [% Ctrl] | % Ctrl (KIT (D816H)) [% Ctrl] | % Ctrl (PIKFYVE) [% Ctrl] | % Ctrl (DMPK) [% Ctrl] | % Ctrl [2] [% Ctrl] | % Ctrl (PAK4) [% Ctrl] | % Ctrl (ULK1) [% Ctrl] | % Ctrl (EPHB3) [% Ctrl] | % Ctrl (KIT(V559D, T670I)) [% Ctrl] | % Ctrl [3] [% Ctrl] | % Ctrl (CDKL3) [% Ctrl] | % Ctrl (MAPKAPK5) [% Ctrl] | other results
1 | [2H]C([2H])([2H])N(C(=O)c1ccc(N2CCCN(c3ccnc4sc(C(N)=O)c(N)c34)CC2)cc1)C([2H])([2H])[2H] [15u_D6, 3-amino-4-(4-(4-(bis(methyl-d3)carbamoyl)phenyl)-1,4-diazepan-1-yl)thieno[2,3-b]pyridine-2-carboxamide] | 100 | 99 | 87 | 100 | 93 | 80 | 64 | 97 | 77 | 66 | 98 | 97 | 100 | 100 | 72 | 94 | 96 | 96 | 100 | 64 | % Ctrl (DYRK2): 97 % Ctrl; % Ctrl (PHKG1): 97 % Ctrl; % Ctrl (DCAMKL3): 100 % Ctrl; % Ctrl (ZAK): 100 % Ctrl; % Ctrl (TAOK3): 73 % Ctrl; % Ctrl (MLK2): 95 % Ctrl; % Ctrl (BRAF): 96 % Ctrl; % Ctrl [4]: 79 % Ctrl; % Ctrl (PKN2): 100 % Ctrl; % Ctrl (BMPR1A): 100 % Ctrl; % Ctrl (LRRK2(G2019S)): 76 % Ctrl; % Ctrl (CSNK1E): 12 % Ctrl; % Ctrl (CSNK2A2): 100 % Ctrl; % Ctrl (MAP4K2): 66 % Ctrl; % Ctrl (MARK3): 100 % Ctrl
2 | CN(C)C(=O)c1ccc(N2CCCN(c3ccnc4sc(C(N)=O)c(N)c34)CC2)cc1 [15u, 3-amino-4-(4-(4-(dimethylcarbamoyl)phenyl)-1,4-diazepan-1-yl)thieno[2,3-b]pyridine-2-carboxamide] | 66 | 100 | 99 | 87 | 100 | 100 | 92 | 100 | 100 | 91 | 91 | 97 | 96 | 87 | 96 | 96 | 100 | 98 | 100 | 100 | % Ctrl (DYRK2): 100 % Ctrl; % Ctrl (PHKG1): 94 % Ctrl; % Ctrl (DCAMKL3): 91 % Ctrl; % Ctrl (ZAK): 94 % Ctrl; % Ctrl (TAOK3): 98 % Ctrl; % Ctrl (MLK2): 100 % Ctrl; % Ctrl (BRAF): 100 % Ctrl; % Ctrl [4]: 94 % Ctrl; % Ctrl (PKN2): 100 % Ctrl; % Ctrl (BMPR1A): 100 % Ctrl; % Ctrl (LRRK2(G2019S)): 90 % Ctrl; % Ctrl (CSNK1E): 25 % Ctrl; % Ctrl (CSNK2A2): 92 % Ctrl; % Ctrl (MAP4K2): 84 % Ctrl; % Ctrl (MARK3): 98 % Ctrl

Reference: patent publication US11572369B2, “Bicyclic pyridine compositions and methods of using the same for cancer therapy” (UNIVERSITY OF SOUTH CAROLINA, priority 2019, dated 2023)
